In DBAASP:
In brackets after ≈: the same amount, converted by molar mass. Values belong to the compound of their own block, whether it stands above or below them.

Tests used:
Test in all cases: ≥ marks a high value that may be exact or a test limit, other limits are often not marked, values filed in µg/mL are converted to µM
Staphylococcus aureus = test system: Staphylococcus aureus
Pseudomonas alginovora = test system: Pseudomonas alginovora
[1] = test system: Pseudoalteromonas carrageenovora ATCC 43555
Escherichia coli D22 = test system: Escherichia coli D22
Salmonella typhimurium = test system: Salmonella typhimurium
Escherichia coli 1106 = test system: Escherichia coli 1106
Bacillus megaterium = test system: Bacillus megaterium
Micrococcus luteus = test system: Micrococcus luteus
Aerococcus viridans = test system: Aerococcus viridans
Escherichia coli D31 = test system: Escherichia coli D31
Enterococcus faecalis = test system: Enterococcus faecalis
[2] = test system: Bacillus subtilis KCTC 1918
[3] = test system: Pseudomonas aeruginosa KCTC 1637
[4] = test system: Aspergillus fumigatus KCTC 4165
[5] = test system: Escherichia coli KCTC 1682
[6] = test system: Salmonella typhimurium KCTC 1926
[7] = test system: Staphylococcus aureus KCTC 1621
[8] = test system: Streptococcus pyogenes KCTC 3096
[9] = test system: Candida albicans TIMM 1768
[10] = test system: Escherichia coli PCM 2057
[11] = test system: Staphylococcus aureus PCM 1944
Pseudomonas aeruginosa = test system: Pseudomonas aeruginosa
[12] = test system: Salmonella enterica serovar Typhimurium
Theileria equi = test system: Theileria equi
[13] = test system: Escherichia coli O157:H7 ATCC 35150
[14] = test system: Streptococcus gordonii DL1
[15] = test system: Streptococcus sanguinis NY101
[16] = test system: Streptococcus mutans UA159
[17] = test system: Streptococcus mutans comD
[18] = test system: Escherichia coli KCCM 11569
[19] = test system: Bacillus subtilis KCCM 11495

MIC [14]: 10 µM (≈ 30.2 µg/mL)
MIC [15]: 20 µM (≈ 60.3 µg/mL)
MIC [16]: 2.5 µM (≈ 7.54 µg/mL)
MIC [17]: 2.5 µM (≈ 7.54 µg/mL)
SMILES: CC(C)C[C@H](NC(=O)[C@H](CCCN=C(N)N)NC(=O)[C@H](Cc1ccccc1)NC(=O)[C@H](Cc1ccccc1)NC(=O)[C@@H](N)[C@@H](C)O)C(=O)N[C@@H](Cc1ccccc1)C(=O)N[C@@H](CC(N)=O)C(=O)N[C@@H](CCCN=C(N)N)C(=O)N[C@@H](CO)C(=O)NCC(=O)NCC(=O)NCC(=O)N[C@@H](Cc1ccccc1)C(=O)N[C@@H](CCCCN)C(=O)N[C@@H](CCCCN)C(=O)N[C@@H](Cc1ccccc1)C(=O)N[C@@H](Cc1c[nH]c2ccccc12)C(=O)N[C@@H](CCCCN)C(=O)N[C@@H](Cc1c[nH]c2ccccc12)C(=O)N[C@@H](Cc1ccccc1)C(=O)N[C@@H](CCCN=C(N)N)C(=O)N[C@@H](CCCN=C(N)N)C(=O)N[C@@H](Cc1ccccc1)C(=O)O [TFFRLFNRSGGGFKKFWKWFRRF]

MIC [18]: 1.52 µM (≈ 2.83 µg/mL)
MIC [19]: 0.538 µM (≈ 1 µg/mL)
SMILES: CC(C)C[C@H](NC(=O)[C@@H](NC(=O)CNC(=O)[C@H](CCCCN)NC(=O)[C@H](C)NC(=O)[C@H](CS)NC(=O)[C@H](CC(N)=O)NC(=O)[C@H](CC(C)C)NC(=O)CNC(=O)[C@H](Cc1cnc[nH]1)NC(=O)[C@H](Cc1cnc[nH]1)NC(=O)[C@H](CC(C)C)NC(=O)[C@H](CC(C)C)NC(=O)[C@H](C)NC(=O)[C@H](CC(N)=O)NC(=O)[C@H](CC(C)C)NC(=O)[C@@H](N)Cc1c[nH]c2ccccc12)C(C)C)C(N)=O [WLNALLHHGLNCAKGVL]

The remaining lines, values behind:

SMILES: C[C@@H]1NC(=O)[C@H](Cc2c[nH]c3ccccc23)NC(=O)CNC(=O)[C@H](CCCCN)NC(=O)[C@@H]2CSSC[C@@H](C(=O)O)NC(=O)[C@H](CCCN=C(N)N)NC(=O)[C@H](Cc3ccccc3)NC(=O)[C@@H]3CSSC[C@H](NC(=O)[C@H](CCCCN)NC(=O)[C@H](C)NC(=O)[C@H](CCCCN)NC(=O)[C@@H]4CSSC[C@H](NC(=O)[C@H](Cc5ccc(O)cc5)NC(=O)[C@H](CSSC[C@H](NC(=O)CN)C(=O)N[C@@H](C)C(=O)N[C@@H](CO)C(=O)N[C@@H](CCCN=C(N)N)C(=O)N4)NC(=O)[C@H](CCCN=C(N)N)NC(=O)CNC(=O)[C@H](CCCN=C(N)N)NC(=O)[C@H](Cc4ccccc4)NC(=O)[C@H](CO)NC(=O)[C@H](C)NC(=O)[C@H](CO)NC1=O)C(=O)N[C@@H](CCCCN)C(=O)N3)C(=O)N[C@@H](C)C(=O)NCC(=O)N[C@@H](CCCN=C(N)N)C(=O)N[C@@H](CCCN=C(N)N)C(=O)N2 [GCASRCKAKCAGRRCKGWASASFRGRCYCKCFRC]
MIC (Staphylococcus aureus): 7.07 µM (≈ 26.7 µg/mL)
MIC (Pseudomonas alginovora): 3.54 µM (≈ 13.3 µg/mL)
MIC [1]: 3.54 µM (≈ 13.3 µg/mL)
MIC (Escherichia coli D22): 7.07 µM (≈ 26.7 µg/mL)
MIC (Salmonella typhimurium): 10 µM (≈ 37.7 µg/mL)
MIC (Escherichia coli 1106): 10 µM (≈ 37.7 µg/mL)
MIC (Bacillus megaterium): 0.849 µM (≈ 3.2 µg/mL)
MIC (Micrococcus luteus): 0.849 µM (≈ 3.2 µg/mL)
MIC (Aerococcus viridans): 0.849 µM (≈ 3.2 µg/mL)
MIC (Escherichia coli D31): 3.54 µM (≈ 13.3 µg/mL)
MIC (Enterococcus faecalis): 3.54 µM (≈ 13.3 µg/mL)

SMILES: CC[C@H](C)[C@H](NC(=O)[C@H](CCCCN)NC(=O)[C@H](CCCCN)NC(=O)[C@H](CC(C)C)NC(=O)[C@H](CCCCN)NC(=O)[C@H](CCC(=O)O)NC(=O)CN)C(=O)NCC(=O)N[C@@H](CCC(N)=O)C(=O)N[C@@H](CCCCN)C(=O)N[C@H](C(=O)N[C@@H](CCCCN)C(=O)N[C@@H](CC(N)=O)C(=O)N[C@@H](Cc1ccccc1)C(=O)N[C@@H](Cc1ccccc1)C(=O)N[C@@H](CCCCN)C(=O)N[C@@H](CCCCN)C(=O)N[C@@H](CC(C)C)C(=O)O)[C@@H](C)CC [GEKLKKIGQKIKNFFKKL]
MIC [2]: 6.25 µM (≈ 13.4 µg/mL)
MIC [3]: 3.12 µM (≈ 6.7 µg/mL)
MIC [4]: 25 µM (≈ 53.7 µg/mL)
MIC [5]: 6.25 µM (≈ 13.4 µg/mL)
MIC [6]: 6.25 µM (≈ 13.4 µg/mL)
MIC [7]: 6.25 µM (≈ 13.4 µg/mL)
MIC [8]: 12.5 µM (≈ 26.8 µg/mL)
MIC [9]: 25 µM (≈ 53.7 µg/mL)

SMILES: CC[C@H](C)[C@H](N)C(=O)NCC(=O)N[C@H]1CSSC[C@@H](C(=O)N[C@@H](Cc2ccccc2)C(=O)N[C@H](C(=O)N[C@@H](CCCCN)C(N)=O)C(C)C)NC(=O)[C@@H]2CCCN2C(=O)[C@H](CCCN=C(N)N)NC(=O)[C@@H]2CCCN2C(=O)[C@@H]2CCCN2C(=O)[C@H]([C@@H](C)CC)NC(=O)[C@H](CO)NC(=O)[C@H](CCCCN)NC(=O)[C@H]([C@@H](C)O)NC(=O)[C@H](Cc2c[nH]c3ccccc23)NC1=O [IGCWTKSIPPRPCFVK]
MIC [10]: ≥ 546 µM
MIC [11]: ≥ 546 µM

SMILES: CC[C@H](C)[C@H](NC(=O)CNC(=O)[C@H](C)NC(=O)[C@H](CS)NC(=O)[C@H](Cc1ccc(O)cc1)NC(=O)CNC(=O)CNC(=O)[C@H](CCCN=C(N)N)NC(=O)[C@H](CCCN=C(N)N)NC(=O)CNC(=O)[C@@H](NC(=O)[C@@H](N)CO)[C@@H](C)CC)C(=O)N[C@H](C(=O)N[C@@H](CCCCN)C(=O)N[C@@H](CCC(N)=O)C(=O)N[C@H](C(=O)N[C@@H](CS)C(=O)N[C@H](C(=O)N[C@@H](CS)C(=O)N[C@@H](Cc1ccc(O)cc1)C(=O)N[C@@H](CCCN=C(N)N)C(=O)O)[C@@H](C)O)[C@@H](C)O)[C@@H](C)CC [SIGRRGGYCAGIIKQTCTCYR]
MIC (Pseudomonas aeruginosa): 2 µM (≈ 4.61 µg/mL)
MIC [12]: 10 µM (≈ 23.1 µg/mL)
MIC (Staphylococcus aureus): 2 µM (≈ 4.61 µg/mL)
MIC (Theileria equi): 5 µM (≈ 11.5 µg/mL)
MIC [13]: 2 µM (≈ 4.61 µg/mL)
